“Also recorded” adds a separate entry of the source.
Key:
5α-reductase = 5α-reductase inhibition stated in words; assay type: biochemical
[1] = target: T1, 5α-Reductase of Rat Liver Microsomes (Rattus norvegicus, UniProt P24008); experiment: biochemical
T1 sequence (P24008 1-259): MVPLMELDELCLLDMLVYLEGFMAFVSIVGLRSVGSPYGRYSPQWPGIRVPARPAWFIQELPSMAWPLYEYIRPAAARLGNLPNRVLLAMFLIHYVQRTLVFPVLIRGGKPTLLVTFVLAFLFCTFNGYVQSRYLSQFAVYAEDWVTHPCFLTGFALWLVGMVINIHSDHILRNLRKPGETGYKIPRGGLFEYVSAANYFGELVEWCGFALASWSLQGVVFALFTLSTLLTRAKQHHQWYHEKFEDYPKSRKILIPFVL
Protocol: Briefly, the binding assay solution, in a final volume of 0.15 ml, contained microsomes (2-20 μg of protein), 0.08 μCi of [^3 H]4-MA, 0.1 mM-NADPH, 1 mM-dithiothreitol and 50 mM-potassium phosphate, pH 7.0, with or without the indicated amount of a lipid or an inhibitor preparation. Lipids were dissolved in ethanol and added in 1-5 μl volumes. Control tubes received the same amount of ethanol. After incubation at 0° C. for 1 h, the [^3 H]4-MA bound to microsomes was determined by collecting microsomes on a Whatman GF/1F glass fibre filter and washing with 10 ml of 20 mM-potassium phosphate, pH 7.0, containing 0.01% CHAPS to remove unbound [^3 H]4-MA.
Microsomes were prepared at 4° C. from a buffered 0.32M-sucrose homogenate of human liver and from the livers of adult Sprague-Dawley female rats by differential centrifugation as described previously (Liang et al., 1990), and were used in the assay of 5α-reductase activity. In some experiments, microsomes were solubilized with 0.1% polyoxyethylene ether W-1 as described previously (Liang et al., 1990), except for the substitution of polyoxyethylene ether W-1 for Lubrol-WX.

5α-reductase / prostate = settings: cited from earlier work
prostate = settings: dog, in vivo; cited from earlier work
scalp baldness = settings: topical to scalp; cited from earlier work
rat pituitary cultures = settings: cited from earlier work
[2] = target: T2, human 5α-reductase isozyme type 1 (Homo sapiens, UniProt P18405); experiment: [3H]4-MA binding, human type 1 isozyme expressed in Rat-1A cells; settings: read-out: % Inhibition of [^3 H]4-MA binding
T2 construct: expressed in transfected cells; host or cells: Rat-1A cells infected with pMV7 retrovirus; microsomes of these cells
T2 sequence (P18405 1-259): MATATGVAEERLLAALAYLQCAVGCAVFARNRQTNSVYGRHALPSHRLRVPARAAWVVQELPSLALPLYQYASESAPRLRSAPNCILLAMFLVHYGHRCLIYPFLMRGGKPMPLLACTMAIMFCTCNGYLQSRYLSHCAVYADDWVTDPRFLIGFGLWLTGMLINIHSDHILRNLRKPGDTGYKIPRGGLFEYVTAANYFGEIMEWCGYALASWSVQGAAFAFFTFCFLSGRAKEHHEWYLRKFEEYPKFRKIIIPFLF
Excerpt: (§1) The cDNAs for the human type 1 and 2 5α-reductases were isolated from human prostate λZAP II™ cDNA libraries using the published sequence of the 5α-reductases, PCR™ and standard library screening techniques (Sambrook et al., 1989). The type 1 and 2 cDNAs correspond to nucleotides 31-870 and 28-829, respectively, of the published sequences for these 5α-reductases (Anderson and Russell, 1990; Anderson et al., 1991). The type 1 and 2 cDNAs were subcloned into the retroviral expression vector pMV7 (Kirschmeier et al., 1988) and high titer stocks of virus containing the type 1 and 2 cDNAs were generated using the packaging cells BOSC 23 293 (Kirschmeier et al., 1988). Rat.-1A cells (Pear et al., 1993) were infected with virus (Topp, 1981) and cells containing integrated retrovirus were selected for G418-SO4 resistance, (Brown and Scott, 1987).
(§2) Microsomes were prepared as described previously (Liang and Liao, 1992) from the liver of adult Sprague-Dawley female rats or Rat-1A cells expressing a specific type of human 5α-reductase. […] The data presented was based on the rate of reaction.
(§3) [^3 H]4-MA binding assay were described in detail previously (Liang and Liao, 1992; Liang et al., 1983). […] The reaction was started by the addition of 25 μl of microsomes (25 μg protein). After 30-60 min incubation at 0° C., the [^3 H]4-MA bound to microsomes was collected on a Whatman GF/F glass fiber, washed and radioactivity determined (Liang and Liao, 1992).

[3] = target: T3, human 5α-reductase isozyme type 2 (Homo sapiens, UniProt P31213); experiment: [3H]4-MA binding, human type 2 isozyme expressed in Rat-1A cells; settings: read-out: % Inhibition of [^3 H]4-MA binding
T3 construct: expressed in transfected cells; host or cells: Rat-1A cells infected with pMV7 retrovirus; microsomes of these cells
T3 sequence (P31213 1-254): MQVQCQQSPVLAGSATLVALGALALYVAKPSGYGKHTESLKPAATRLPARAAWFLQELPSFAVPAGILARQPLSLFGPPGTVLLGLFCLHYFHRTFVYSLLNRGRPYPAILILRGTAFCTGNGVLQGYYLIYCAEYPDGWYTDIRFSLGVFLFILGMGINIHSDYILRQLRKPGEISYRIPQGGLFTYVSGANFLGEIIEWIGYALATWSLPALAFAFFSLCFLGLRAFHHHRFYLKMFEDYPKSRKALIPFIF
Excerpt: as §1, §2, §3

Soybean lipoxygenase = Soybean lipoxygenase (Glycine max, UniProt P08170); settings: cited from earlier work
Chain of Soybean lipoxygenase (P08170 whole entry): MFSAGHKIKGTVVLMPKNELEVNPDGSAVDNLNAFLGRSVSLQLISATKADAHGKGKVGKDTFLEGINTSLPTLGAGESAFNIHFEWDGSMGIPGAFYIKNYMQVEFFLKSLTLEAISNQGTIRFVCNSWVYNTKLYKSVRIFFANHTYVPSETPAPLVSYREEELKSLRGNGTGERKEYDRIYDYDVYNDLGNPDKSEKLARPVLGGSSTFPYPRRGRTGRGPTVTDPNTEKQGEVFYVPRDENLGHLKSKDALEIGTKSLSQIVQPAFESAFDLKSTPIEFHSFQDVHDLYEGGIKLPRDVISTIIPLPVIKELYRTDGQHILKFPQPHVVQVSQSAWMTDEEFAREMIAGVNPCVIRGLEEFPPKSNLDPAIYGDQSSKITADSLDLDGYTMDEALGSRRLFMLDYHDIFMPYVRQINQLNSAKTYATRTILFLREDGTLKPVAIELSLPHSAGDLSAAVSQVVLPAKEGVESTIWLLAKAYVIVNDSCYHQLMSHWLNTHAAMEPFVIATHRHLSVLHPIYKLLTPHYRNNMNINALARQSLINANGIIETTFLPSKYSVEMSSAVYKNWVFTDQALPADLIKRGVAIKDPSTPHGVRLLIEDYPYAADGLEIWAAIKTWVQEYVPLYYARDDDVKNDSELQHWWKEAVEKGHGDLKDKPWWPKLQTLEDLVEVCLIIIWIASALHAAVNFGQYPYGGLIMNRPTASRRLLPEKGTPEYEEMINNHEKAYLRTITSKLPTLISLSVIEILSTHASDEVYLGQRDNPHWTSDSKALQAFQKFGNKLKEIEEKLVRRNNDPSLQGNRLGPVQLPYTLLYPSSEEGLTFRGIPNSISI

[4] = NADPH oxidation in presence of microsomes
[5] = target: T3, human 5α-reductase isozyme type 2; experiment: 4-[14C]testosterone reduction, human type 2 isozyme; assay type: biochemical
Excerpt: as §1, §2
(§4) The reaction was started by the addition of 25 μl of microsomes (25 μg protein). The mixture was incubated at 37° for 30-60 min and stopped by addition of 0.5 ml of ethyl acetate and mixing for 1 min. The organic solvent extract was removed under vacuum.

[6] = target: T1, 5α-Reductase of Rat Liver Microsomes; experiment: [3H]4-MA binding assay, rat liver microsomes (tea catechins)
In short: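 Microsomes from adult female Sprague-Dawley rat liver or Rat-1A cells expressing human 5α-reductase, 25 μg protein per reaction. Incubation 30–60 min at 0 °C; microsome-bound [3H]4-MA collected on glass-fibre filters and counted. Duplicate or triplicate determinations, values based on reaction rate.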

[7] = system: prostate and preputial organ; experiment: Catechins ip 7 days, large rats; assay type: in vivo, rat; settings: 15 mg ip/day, 7 days
Protocol: Male Sprague Dawley rats, 172±20 g body weight, were used. Each group had 5 rats. […] The control rats received 0.3 ml of 30% ethanol.

type 1 5α-reductase = assay type: biochemical
Protocol: as §3, §4

[8] = system: androgen-dependent organs; assay type: in vivo, rat
Protocol: The control rats were injected with 0.3 ml of 30% ethanol.

[9] = target: T2, human 5α-reductase isozyme type 1; experiment: 4-[14C]testosterone reduction, human type 1 isozyme; assay type: biochemical
Excerpt: as §1, §2, §4

[10] = read-out: % Inhibition of 5α-reduction
[11] = read-out: % Inhibition of [^3 H]4-MA binding

With `O=C(OCc1cc(O)c(O)c(O)c1)c1cc(O)c(O)c(O)c1` the “5α-reductase inhibition” value (5α-reductase) was “potent inhibitor of 5α-reductase”.

For `CCN(CC)C(=O)[C@H]1CC[C@H]2[C@@H]3CC[C@H]4N(C)C(=O)CC[C@]4(C)[C@H]3CC[C@]12C` [4-MA, 17β-N,N-diethylcarbamoyl-4-methyl-4-aza-5α-androstan-3-one], the Ki [1] is listed as 0.013 µM, the “effect on prostate growth” value (5α-reductase / prostate; castrated rats + testosterone) is listed as “attenuated the growth of the prostate” and the “effect on prostatic 5α-DHT” value (5α-reductase / prostate; intact or castrated male rats given testosterone propionate) is listed as “decreasing the prostatic concentration of 5α-DHT”. The “prostate size” value (prostate) was “the prostate size decreases”, the “baldness” value (scalp baldness) was “prevented the baldness; also recorded: effective in preventing male pattern baldness” and the “testosterone inhibition of LH release” value (rat pituitary cultures) was “did not affect testosterone inhibition of LH release”.

`O=C(O[C@@H]1Cc2c(O)cc(O)cc2O[C@@H]1c1ccc(O)c(O)c1)c1cc(O)c(O)c(O)c1` [ECG, (-)Epicatechin-3-gallate] showed an inhibition at 1 µM [2] of 34%, an inhibition at 3 µM [2] of 47% and an inhibition at 10 µM [2] of 79%. The inhibition at 30 µM [2] was 87%, the inhibition at 100 µM [2] was 79% and the inhibition at 1 µM [3] was 17%. For the same molecule, the inhibition at 3 µM [3] was 17%, the inhibition at 10 µM [3] was 45% and the inhibition at 30 µM [3] was 76%. The inhibition at 100 µM [3] was 80%, the IC50 (Soybean lipoxygenase) was 18 µM and the NADPH oxidation [4] was “did not induce NADPH oxidation”. For the same molecule, the “activity on type 2 isozyme” value ([5]; enzymatic assay, concentrations below 30 μM for ECG/EGCG) was “did not inhibit the Type 2 isozyme”, the inhibition at 1 µM [5, 10] was under 10% and the inhibition at 3 µM [5, 10] was under 10%. The inhibition at 10 µM [5, 10] was under 10%, the inhibition at 30 µM [5, 10] was under 10% and the inhibition at 100 µM [5, 10] was 82%. It also gave an inhibition at 5 µM [6, 11] of 25%, an inhibition at 10 µM [6, 11] of 44% and an inhibition at 20 µM [6, 11] of 74%. It also gave an inhibition at 40 µM [6, 11] of 88%, an inhibition at 200 µM [6, 11] of 92% and an IC50 ([6]; type 1 5α-reductase of rat liver microsomes, read-out: IC50) of 12 µM. For the same molecule, the “effect on the body weights” value [7] was “less than 10%”, the “competition with testosterone or NADPH” value (type 1 5α-reductase) was “did not appear to compete with testosterone or NADPH” and the “effect on all organs examined” value ([8]; 10 and 15 mg per day) was “less than 20%”. For the same molecule, the “effect on the body weight” value ([8]; up to 15 mg per day) was “No significant effect”, the IC50 ([9]; enzymatic assay) was about 10 µM and the inhibition at 1 µM [9, 10] was 20%. For the same molecule, the inhibition at 3 µM [9, 10] was 27%, the inhibition at 10 µM [9, 10] was 47% and the inhibition at 30 µM [9, 10] was 90%. It also gave an inhibition at 100 µM [9, 10] of 99%.
